Experiments:
[1] = target: T1, purified recombinant human PARP (Homo sapiens, UniProt P09874); test: PARP enzyme assay (IC50), [3H]NAD incorporation; type: biochemical; conditions: approximate IC50 values
T1 construct: purchased Trevigan (Gaithersburg, Md.)
Description: A convenient method to determine IC50 of a PARP inhibitor compound is PARP assay using purified recombinant human PARP from Trevigan (Gaithersburg, Md.), as follows: The PARP enzyme assay is set up on ice in a volume of 100 microliters consisting of 100 mM Tris-HCl (pH 8.0). 1 mM MgCl2, 28 mM KCl, 28 mM NaCl, 0.1 mg/ml of DNase I activated herring sperm DNA (Sigma, Mo.), 3.0 micromolar [3H]nicotinamide adenine dinucleotide (470 mci/mmole), 7 micrograms/ml PARP enzyme, and various concentrations of the compounds to be tested. The reaction is initiated by incubating the mixture at 25° C. After 15 minutes of incubation, the reaction is terminated by adding 500 microliters of ice code 20% (w/v) trichloracetic acid. The precipitate formed is transferred onto a glass fiber filter (Packard Unifilter-GF/B) and washed three items with ethanol. After the filter is dried, the radioactivity is determined by scintillation counting.
Using the PARP assay described above, approximate IC50 values were obtained for the following compounds: […]

rabbits = conditions: cited from earlier work
[2] = system: human fibroblast cells lines (either W138 or BJ cells); test: Extending or increasing proliferative capacity and lifespan of cells; type: cell-based
Description: At the time of subdivision, the media is aspirated, and the cells rinsed with phosphate buffer saline (PBS) and then trypsinzied. The cells are counted with a Coulter counter and plated at a density of 10^5 cells per cm^2 in 6-well tissue culture plates in DMEM/199 medium supplemented with 10% bovine calf serum and varying amounts (0.10 μM, and 1 mM; from a 100× stock solution in DMEM/M199 medium) of a PARP inhibitor. This process is repeated every 7 days until the cells appear to stop dividing. The untreated (control) cells reach senescence and stop dividing after about 40 days a culture. […] The cells treated with 1 mM 3-AB will still divide after 60 days in culture.

PARP = PARP (Homo sapiens, UniProt P09874); conditions: read-out: IC50 for inhibiting PARP; reported by Suto et al.; cited from earlier work
male Long-Evans rats = test: Focal cerebral ischemia (right distal MCA cauterization with bilateral temporary CCA occlusion); type: in vivo; conditions: for damaged volume (infarct volume): mean±SD
Description: Focal cerebral ischemia is produced by cauterization of the right distal MCA (middle cerebral artery) with bilateral temporary common carotid artery occlusion in male Long-Evans rats for 90 minutes. All procedures performed on the animals are approved by the University Institutional Animal Care and Use Committee of the University of Pennsylvania. A total of 42 rats (weights: 230-340 g) obtained from Charles River were used in this study. The animals fasted overnight with free access to water prior to the surgical procedure.
Two hours prior to MCA occlusion, varying amounts (control, n=14; 5 mg/kg, n=7; 10 mg/kg, n=7; 20 mg/kg, n=7; and 40 mg/kg, n=7) of the compound, 3,4-dihydro-5-[4-(1-piperidinyl)-butoxy]-1(2H)-isoquinolinone (“DPQ”) were dissolved in dimethyl sulfoxide (DMSO) using a sonicator. A volume of 1.28 ml/kg of the resulting solution was injected intraperiotoneally into fourteen rats.
The rats were then anesthetized with halothane (4% for induction and 0.8%-[…] for the surgical procedure) in a mixture of 70% nitrous oxide and 30% oxygen. The body temperature was monitored by a rectal probe and maintained at 37.5±0.5° C. with a heating blanket regulated by a homethermic blanket control unit (Harvard Apparatus Limited, Kent, U.K.). A catheter (PE-50) was placed into the tail artery, and arterial pressure was continuously monitored and recorded on a Grass polygraph recorder (Model 7D, Grass Instruments, Quincy, Mass.). Samples for blood gas analysis (arterial pH, PaO2 and PaCO2) were also taken from the tail artery catheter and measured with a blood gas analyzer (ABL 30, Radiometer, Copenhagen, Denmark). Arterial blood samples were obtained 30 minutes after MCA occlusion.
The head of the animal was positioned in a stereotaxic frame, and a right parietal incision between the right lateral canthus and the external auditory meatus was made. Using a dental drill constantly cooled with saline, a 3 mm burr hole was prepared over the cortex supplied by the right MCA. 4 mm lateral to the sagittal suture and 5 mm caudal to the coronal suture. The dura mater and a thin inner bone layer were kept, care being taken to position the probe over a tissue area devoid of large blood vessels. The flow probe (tip diameter of 1 mm, fiber separation of 0.25 mm) was lowered to the bottom of the cranial burr hole using a micromanipulator. The probe was held stationary by a probe holder secured to the skull with dental cement. The microvascular blood flow in the right parietal cortex was continuously monitored with a laser Doppler flowmeter (FloLab, Moor, Devon, U.K., and Periflux 4001, Perimed, Stockholm, Sweden).
Focal cerebral ischemia was produced by cauterization of the distal portion of the right MCA with bilateral temporary common caroud artery (CCA) occlusion by the procedure of Chen et al., “A Model of Focal Ischemic Stroke in the Rat: Reproducible Extensive Cortical Infarction”, Stroke 17:738-43 (1986) and/or Liu et al., “Polyethylene Glycol-conjugated Superoxide Dismutase and Catalase Reduce Ischemic Brain Injury”, Am. J. Physiol. 256:H589-93 (1989), both of which are hereby incorporated by reference.
Specifically, bilateral CCA's were isolated, and loops made from polyethylene (PE-10) catheter were carefully passed around the CCA's for later remote occlusion. […]

T1 sequence (P09874 whole entry): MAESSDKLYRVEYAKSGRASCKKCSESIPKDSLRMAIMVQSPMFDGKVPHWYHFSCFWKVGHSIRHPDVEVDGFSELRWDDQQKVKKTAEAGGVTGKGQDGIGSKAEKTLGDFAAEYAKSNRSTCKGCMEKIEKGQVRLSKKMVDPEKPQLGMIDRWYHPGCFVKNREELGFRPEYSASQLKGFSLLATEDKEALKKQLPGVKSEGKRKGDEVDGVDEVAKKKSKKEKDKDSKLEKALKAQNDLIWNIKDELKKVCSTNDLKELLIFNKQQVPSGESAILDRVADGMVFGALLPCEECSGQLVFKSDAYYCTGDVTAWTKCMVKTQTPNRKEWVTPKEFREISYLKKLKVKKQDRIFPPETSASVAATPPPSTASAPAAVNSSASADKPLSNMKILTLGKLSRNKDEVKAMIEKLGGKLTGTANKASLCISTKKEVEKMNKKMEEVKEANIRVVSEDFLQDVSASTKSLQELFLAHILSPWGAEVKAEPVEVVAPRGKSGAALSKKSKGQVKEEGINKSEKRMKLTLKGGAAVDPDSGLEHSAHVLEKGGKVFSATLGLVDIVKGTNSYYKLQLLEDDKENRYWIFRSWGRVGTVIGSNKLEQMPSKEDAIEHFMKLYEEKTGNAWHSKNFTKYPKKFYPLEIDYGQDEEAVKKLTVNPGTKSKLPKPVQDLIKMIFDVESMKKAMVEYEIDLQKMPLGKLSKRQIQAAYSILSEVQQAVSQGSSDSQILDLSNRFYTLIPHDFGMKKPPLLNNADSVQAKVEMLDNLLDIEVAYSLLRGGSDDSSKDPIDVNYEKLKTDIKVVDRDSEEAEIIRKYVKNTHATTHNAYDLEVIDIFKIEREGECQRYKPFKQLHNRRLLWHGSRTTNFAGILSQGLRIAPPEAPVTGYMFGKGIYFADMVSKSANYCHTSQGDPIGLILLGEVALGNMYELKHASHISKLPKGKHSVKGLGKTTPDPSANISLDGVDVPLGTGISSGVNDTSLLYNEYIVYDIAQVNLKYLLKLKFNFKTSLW
PARP, sequence (P09874 whole entry): as above

Compound: COP(=O)(O)Cc1ccc2c(c1)-c1n[nH]c(=O)c3cccc(c13)O2
- melting point: 196 to 201 °C

Compound: O=c1[nH]nc2c3c(cccc13)Oc1ccc(S(=O)(=O)O)cc1-2
- IC50 [1]: 52 nM

Compound: O=c1[nH]nc2c3c(cccc13)Oc1ccc(CN3CCN(c4ccccn4)CC3)cc1-2
- IC50 [1]: 77 nM

Compound: CN1CCN(S(=O)(=O)c2ccc3c(c2)C2CNC(=O)c4cccc(c42)O3)CC1 (stereo not shown)
- IC50 [1]: 233 nM

Compound: O=C1NCC2c3cc(S(=O)(=O)NN4CCOCC4)ccc3Oc3cccc1c32 (stereo not shown)
- IC50 [1]: 144 nM

Compound: O=C(O)[C@@H]1CCCN1S(=O)(=O)c1ccc2c(c1)-c1n[nH]c(=O)c3cccc(c13)O2
- IC50 [1]: 58 nM

Compound: COC(=O)C1CCCCN1S(=O)(=O)c1ccc2c(c1)C1CNC(=O)c3cccc(c31)O2 (stereo not shown)
- IC50 [1]: 595 nM

Compound: O=c1[nH]nc2c3c(cccc13)Oc1ccc(S(=O)(=O)NCCN(CCO)CCO)cc1-2
- IC50 [1]: 158 nM

Compound: CC(=O)OC(C(=O)O)C(OC(C)=O)C(=O)Nc1ccc2c(c1)-c1n[nH]c(=O)c3cccc-2c13 (stereo not shown)
- IC50 [1]: 59 nM

Compound: O=c1[nH]nc2c3c(cccc13)Oc1ccc(S(=O)(=O)NCCCN3CCOCC3)cc1-2
- IC50 [1]: 185 nM

Compound: Oc1cccc2c(O)nccc12 [1,5-dihydroxyisoquinoline]
- reduction in infarct size (rabbits; 1 mg/kg): 38-48%

Compound: NC(=O)c1cccc(N)c1 [3-amino-benzamide]
- reduction in infarct size in the heart (rabbits; single injection 10 mg/kg, one minute before occlusion or one minute before reperfusion): 32-42%
- effect on lifespan and proliferative capacity of the cells ([2]; 10 μM): little or no effect
- effect on lifespan and proliferative capacity of the cells ([2]; 100 μM): lengthen the lifespan of the cells
- effect on lifespan and proliferative capacity of the cells ([2]; 1 mM): dramatically increases the lifespan and proliferative capacity of the cells
- time in culture at which cells still divide ([2]; 1 mM, untreated cells stop dividing after about 40 days): > 60 days

Compound: O=C1NCCc2c(OCCCCN3CCCCC3)cccc21 [DPQ, 3,4-dihydro-5-[4-(1-piperidinyl)-butoxy]-1(2H)-isoquinolinone]
- IC50 (PARP): 10 nM
- damaged volume (infarct volume) (male Long-Evans rats; 5 mg/kg i.p. 2 h before and 2 h after MCA occlusion, p<0.001 vs control): 106.7±23.2 mm^3
- damaged volume (infarct volume) (male Long-Evans rats; 10 mg/kg i.p. 2 h before and 2 h after MCA occlusion, p<0.001 vs control): 76.4±16.8 mm^3
- damaged volume (infarct volume) (male Long-Evans rats; 20 mg/kg i.p. 2 h before and 2 h after MCA occlusion, p<0.01 vs control): 110.2±42.0 mm^3
- damaged volume (infarct volume) (male Long-Evans rats; 40 mg/kg i.p. 2 h before and 2 h after MCA occlusion, not significant vs control): 135.6±44.8 mm^3
- infarct volume, overall effect of in vivo administration (male Long-Evans rats; focal cerebral ischemia model in the rat): substantial reduction in infarct volume

Reference: patent US6716828B1, “Compounds, methods and pharmaceutical compositions for treating cellular damage, such as neural or cardiovascular tissue damage” (Guilford Pharmaceuticals, Inc., priority 1999, dated 2004)
